From publication PMC10859787 (Clinical and Translational Science, 2024)

Assays:
[1] = cited from earlier work
[2] = Population pharmacokinetic analysis of upadacitinib plasma concentrations; assay type: in vivo, human; conditions: for Cmax: C max; for Cmax / concentration at 24 h / C avg: model-estimated, 15 mg once daily, median (5th to 95th percentile); for concentration at 24 h: C trough
CYP2D6 = conditions: cited from earlier work
cytochrome P450 (CYP) 3A = conditions: cited from earlier work
[3] = human, plasma, oral, 15 mg, patients with RA in phase III trials (N = 1592)
[4] = human, plasma, oral, 15 mg, patients with nr-axSpA (N = 71)

With `CC[C@@H]1CN(C(=O)NCC(F)(F)F)C[C@@H]1c1cnc2cnc3[nH]ccc3n12` [upadacitinib] as the molecule, how does the “dose linearity of pharmacokinetics” value ([1]; 7.5 to 45 mg q.d. dose range) read?
Its value is “linear pharmacokinetics”.

What about the “apparent volume of distribution of the central compartment (population estimate)” value ([1]; previously developed RA model) of the same molecule?
The value was 156 L.

What about the Vd/F ([2]; human, plasma, oral, 15 mg) of the same molecule?
The Vd/F was 171 L.

And the Cmax [2, 3]?
Its Cmax is 41.1 ng/mL.

What about the Cmax [2, 4] of the same molecule?
Its Cmax is 37.3 ng/mL.

What about the concentration at 24 h ([2]; human, plasma, oral, 15 mg, patients with AS (N = 173)) of the same molecule?
The concentration at 24 h was 3.71 ng/mL.

And the concentration at 24 h [2, 3]?
The concentration at 24 h was 3.72 ng/mL.

And the concentration at 24 h [2, 4]?
Its concentration at 24 h is 4.58 ng/mL.

And the C avg ([2]; patients with AS (N = 173))?
Its C avg is 14.5 (9.78, 25.9) ng/mL.

What about the C avg ([2]; patients with RA in phase III trials (N = 1592)) of the same molecule?
The C avg was 14.9 (9.74, 29.2) ng/mL.

And the C avg ([2]; patients with nr-axSpA (N = 71))?
Its C avg is 14.8 (10.5, 25.5) ng/mL.

What about the “substrate for CYP2D6” value (CYP2D6) of the same molecule?
The value was “to a minor extent”.

And the “substrate for cytochrome P450 (CYP) 3A” value (cytochrome P450 (CYP) 3A)?
The value was “substrate”.
